Results reported in US12729377B2, “RNAi agents and compositions for inhibiting expression of angiopoietin-like 3 (ANGPTL3), and methods of use” (Arrowhead Pharmaceuticals, Inc., priority 2017, dated 2026).
In the oligonucleotide strings, read from the 5' end, every base follows the letter of its sugar. An asterisk marks phosphorothioate; unmarked linkages are phosphodiester. Other units and linkages are bracketed, terminal groups are in braces. A string of capitals states the bases alone. {NAG37} = tridentate N-acetyl-galactosamine targeting ligand, structure (NAG37)s; [invAb] = inverted abasic unit; m = 2'-O-methyl; f = 2'-fluoro

Assays:
[1] = test system: ANGPTL3 protein; experiment: Example 6: serum ANGPTL3 protein by ELISA in mice; format: in vivo, C57bl/6 mice; settings: for Avg ANGPTL3, normalized to pre-treatment and control: 0.5 mg/kg single SC injection on day 1, serum, n=3
Experimental: (§1) To assess the in vivo activity of additional ANGPTL3 RNAi agents that are designed to target position 304 on the ANGPTL3 gene, six- to eight-week-old female C57bl/6 mice were used. Pre-dose serum samples were taken at day −1 after a four hour fast. At day 1, each mouse was given a single subcutaneous administration of 200 μl containing 0.5 mg/kg (mpk) of an ANGPTL3 RNAi agent in D5W (dextrose in 5% water), or control (D5W) with no RNAi agent, according to the dosing groups recited in Table 25.
Each of the RNAi agents included a modified sequence and an N-acetyl-galactosamine-containing targeting ligand conjugated to the 5′ terminal end of the sense strand. (See Tables 3, 4, and 5 for modified sequences and targeting ligand structures). The injections were performed between the skin and muscle (i.e. subcutaneous injections) into the loose skin over the neck and shoulder area. Three (3) mice in each group were tested (n=3). Serum was collected on days 8, 15, 22, 30, and on day 43 for certain groups (i.e., Groups 1, 2, 5, and 10 only). Mice were fasted for four hours prior to each collection. ANGPTL3 protein levels in serum were measured by ELISA assay (R&D Systems), according to the manufacturer's recommendations. Triglycerides, total cholesterol, high-density lipoprotein (HDL), and low-density lipoprotein (LDL) in serum were measured on a Cobas® Integra 400 (Roche Diagnostics), according to the manufacturer's recommendations.
(§2) The ANGPTL3 protein levels, triglyceride levels, total cholesterol levels, HDL levels, and LDL levels for each animal were normalized. For normalization, the level of ANGPTL3 protein, triglyceride, HDL, and total cholesterol, respectively, for each animal at a time point, was divided by the pre-treatment level of expression in that animal (in this case at day −1) to determine the ratio of expression “normalized to pre-treatment.” Expression at a specific time point was then normalized to the D5W control group by dividing the “normalized to pre-treatment” ratio for an individual animal by the mean “normalized to pretreatment” ratio of all mice in the D5W control group.

[2] = test system: ANGPTL3 gene; experiment: Example 9: serum total cholesterol in cynomolgus monkeys; format: in vivo, cynomolgus macaque (Macaca fascicularis); settings: 2.0 mg/kg single SC injection day 1, cynos, n=3
Experimental: Additional ANGPTL3 RNAi agents were evaluated in cynomolgus monkeys. On day 1, cynomolgus macaque (Macaca fascicularis) primates (also referred to herein as “cynos”) were administered a single subcutaneous injection of 0.3 mL/kg (approximately 2-3 mL volume, depending on animal mass) containing 2.0 mg/kg of an ANGPTL3 RNAi agent, which included either AD05488, AD05743, AD05775, or AD05841, each formulated in saline. […] ANGPTL3 RNAi agents AD05488, AD05743, and AD05775 included nucleotide sequences designed to target position 304 of the ANGPTL3 gene. ANGPTL3 RNAi agent AD05841 included nucleotide sequences designed to target position 1035 of the ANGPTL3 gene.
Three (3) cynos in each group were tested (n=3). Blood samples were drawn and serum samples were analyzed on days −14 (predose), −7 (predose), 1 (pre-dose), 8, 15, 22, 29, and 35. Cynos were fasted overnight prior to each collection. ANGPTL3 protein levels in serum were measured by ELISA assay (R&D Systems), according to the manufacturer's recommendations. Triglycerides, total cholesterol, high-density lipoprotein (HDL), and low-density lipoprotein (LDL) in serum were measured on a Cobas® Integra 400 (Roche Diagnostics), according to the manufacturer's recommendations.
The ANGPTL3 protein levels, triglyceride levels, total cholesterol levels, HDL levels, and LDL levels for each animal were normalized. For normalization, the level of ANGPTL3 protein, triglyceride, HDL, and total cholesterol, respectively, for each animal at a time point, was divided by the average pre-treatment level of expression in that animal (in this case at days −14, −7, and 1) to determine the ratio of expression “normalized to pre-treatment.”

[3] = test system: ANGPTL3 gene; experiment: Example 10: serum LDL in mice; format: in vivo, C57bl/6 mice; settings: 0.5 mg/kg sc
Experimental: as §1, with “further” for “additional”, “47.” for “25.”
Each of the RNAi agents included a modified sequence and an N-acetyl-galactosamine-containing targeting ligand conjugated to the 5′ terminal end of the sense strand. (See Tables 3, 4, and 5 for modified sequences and targeting ligand structures). As noted above, each of the ANGPTL3 RNAi agents dosed in this study included nucleotide sequences designed to target the ANGPTL3 gene at position 304. The injections were performed between the skin and muscle (i.e. subcutaneous injections) into the loose skin over the neck and shoulder area. Three (3) mice in each group were tested (n=3). Serum was collected on days 8, 15, 22, 29, and for some groups on day 36 (i.e., Groups 1, 2, and 9-13 only). Mice were fasted for four hours prior to each collection. ANGPTL3 protein levels in serum were measured by ELISA assay (R&D Systems), according to the manufacturer's recommendations. Triglycerides, total cholesterol, high-density lipoprotein (HDL), and low-density lipoprotein (LDL) in serum were measured on a Cobas® Integra 400 (Roche Diagnostics), according to the manufacturer's recommendations.
as §2

AD05488: RNAi agent duplex: antisense AM07235-AS, sense AM07234-SS (antisense mU*fA*mC*fUmGfAmUfCmAfAmAfUmAfUmGfUmUfGmAfG*mC; sense {NAG37}*[invAb]*mGmCmUmCmAmAmCmAfUfAfUmUmUmGmAmUmCmAmGmUmA*[invAb])
Avg ANGPTL3, normalized to pre-treatment and control ([1]; Day 8): 0.221 | Avg ANGPTL3, normalized to pre-treatment and control ([1]; Day 15): 0.272 | Avg ANGPTL3, normalized to pre-treatment and control ([1]; Day 22): 0.254 | Avg ANGPTL3, normalized to pre-treatment and control ([1]; Day 30): 0.381 | Avg ANGPTL3, normalized to pre-treatment and control ([1]; Day 43): 0.475 | reduction in ANGPTL3 protein levels ([1]; through at least day 22, single 0.5 mg/kg subcutaneous, C57bl/6 mice): substantial reduction | Average Total Cholesterol Normalized to Pre-Treatment ([2]; Day 8): 0.823 | Average Total Cholesterol Normalized to Pre-Treatment ([2]; Day 15): 0.744 | Average Total Cholesterol Normalized to Pre-Treatment ([2]; Day 22): 0.709 | Average Total Cholesterol Normalized to Pre-Treatment ([2]; Day 29): 0.687 | Average Total Cholesterol Normalized to Pre-Treatment ([2]; Day 35): 0.659 | Avg LDL Normalized to Pre-Treatment and Control ([3]; Day 8): 0.836 | Avg LDL Normalized to Pre-Treatment and Control ([3]; Day 15): 0.969 | Avg LDL Normalized to Pre-Treatment and Control ([3]; Day 22): 0.901 | Avg LDL Normalized to Pre-Treatment and Control ([3]; Day 29): 0.762 | Avg LDL Normalized to Pre-Treatment and Control ([3]; Day 36): 0.863
